What was measured:
[1] = human gut metagenome, 24 h, 2 µM
[2] = (§1) The drug is tested on Z-004 corresponding to metagenome with ENA study accession number: PRJEB37062 and ENA sample accession number: ERS12561804 for biotransformation under anaerobic condition. The drug concentrations were measured over 9 timepoints collected between 0 and 24 hours of incubation by liquid-chromatography-coupled mass spectrometry (LC–MS); details: 2 µM
[3] = (§2) The drug is tested on WLS-350 corresponding to human gut metagenome with ENA study accession number: PRJEB37062 and ENA sample accession number: ERS12561789 for biotransformation under anaerobic condition. The drug concentrations were measured over 9 timepoints collected between 0 and 24 hours of incubation by liquid-chromatography-coupled mass spectrometry (LC–MS); details: 2 µM
[4] = as §2, with “WLS-240” for “WLS-350”, “ERS12561773” for “ERS12561789”; details: 2 µM
[5] = as §1, with “Z-010” for “Z-004”, “ERS12561810” for “ERS12561804”; details: 2 µM
[6] = human gut metagenome, 24 h, 2 µM; remark: listed apart in the source
[7] = human gut metagenome, 24 h, 2 µM; remark: listed apart in the source
[8] = as §1, with “Z-027” for “Z-004”, “ERS12561826” for “ERS12561804”; details: 2 µM
[9] = human gut metagenome, 24 h, 2 µM; remark: listed apart in the source
[10] = as §2, with “WLS-220” for “WLS-350”, “ERS12561769” for “ERS12561789”; details: 2 µM
[11] = human gut metagenome, 24 h, 2 µM; remark: listed apart in the source
[12] = as §2, with “WLS-370” for “WLS-350”, “ERS12561793” for “ERS12561789”; details: 2 µM
[13] = human gut metagenome, 24 h, 2 µM; remark: listed apart in the source
[14] = as §2, with “Z-003” for “WLS-350”, “pig” for “human”, “ERS12561803” for “ERS12561789”; details: 2 µM
[15] = as §2, with “Z-013” for “WLS-350”, “rabbit” for “human”, “ERS12561813” for “ERS12561789”; details: 2 µM
[16] = as §1, with “Z-026” for “Z-004”, “ERS12561825” for “ERS12561804”; details: 2 µM
[17] = human gut metagenome, 24 h, 2 µM; remark: listed apart in the source
[18] = human gut metagenome, 24 h, 2 µM; remark: listed apart in the source
[19] = as §2, with “Z-020” for “WLS-350”, “rabbit” for “human”, “ERS12561819” for “ERS12561789”; details: 2 µM
[20] = human gut metagenome, 24 h, 2 µM; remark: listed apart in the source
Also: call rule not given here.

| Bacterial Biotransformation [1] | Bacterial Biotransformation [2] | Bacterial Biotransformation [3] | Bacterial Biotransformation [4] | Bacterial Biotransformation [5] | Bacterial Biotransformation [6] | Bacterial Biotransformation [7] | Bacterial Biotransformation [8] | Bacterial Biotransformation [9] | Bacterial Biotransformation [10] | Bacterial Biotransformation [11] | Bacterial Biotransformation [12] | Bacterial Biotransformation [13] | Bacterial Biotransformation [14] | Bacterial Biotransformation [15] | Bacterial Biotransformation [16] | Bacterial Biotransformation [17] | Bacterial Biotransformation [18] | Bacterial Biotransformation [19] | Bacterial Biotransformation [20] | Compound |
| --- | --- | --- | --- | --- | --- | --- | --- | --- | --- | --- | --- | --- | --- | --- | --- | --- | --- | --- | --- | --- |
| Compound NOT metabolized | Compound NOT metabolized | Compound NOT metabolized | Compound metabolized | Compound NOT metabolized | Compound metabolized | Compound metabolized | Compound NOT metabolized | Compound metabolized | Compound metabolized | Compound metabolized | Compound metabolized | Compound metabolized | Compound NOT metabolized | Compound NOT metabolized | Compound NOT metabolized | Compound metabolized | Compound metabolized | Compound NOT metabolized | Compound metabolized | CCc1cccc2c3c([nH]c12)C(CC)(CC(=O)O)OCC3 (stereo not given) [ETODOLAC] |
| Compound metabolized | Compound NOT metabolized | Compound metabolized | Compound metabolized | Compound metabolized | Compound metabolized | Compound metabolized | Compound NOT metabolized | Compound metabolized | Compound metabolized | Compound metabolized | Compound metabolized | Compound metabolized | Compound metabolized | Compound NOT metabolized | Compound metabolized | Compound metabolized | Compound metabolized | Compound metabolized | Compound metabolized | CC(=O)OCC(CCn1cnc2cnc(N)nc21)COC(C)=O [FAMCICLOVIR] |
| Compound metabolized | Compound NOT metabolized | Compound metabolized | Compound metabolized | Compound metabolized | Compound metabolized | Compound metabolized | Compound metabolized | Compound metabolized | Compound metabolized | Compound metabolized | Compound metabolized | Compound metabolized | Compound metabolized | Compound metabolized | Compound metabolized | Compound metabolized | Compound metabolized | Compound metabolized | Compound metabolized | CC(C)(C)NC(=O)[C@H]1CC[C@H]2[C@@H]3CC[C@H]4NC(=O)C=C[C@]4(C)[C@H]3CC[C@]12C [FINASTERIDE] |
| Compound NOT metabolized | Compound NOT metabolized | Compound NOT metabolized | Compound NOT metabolized | Compound NOT metabolized | Compound NOT metabolized | Compound NOT metabolized | Compound NOT metabolized | Compound NOT metabolized | Compound NOT metabolized | Compound NOT metabolized | Compound NOT metabolized | Compound NOT metabolized | Compound NOT metabolized | Compound NOT metabolized | Compound NOT metabolized | Compound NOT metabolized | Compound NOT metabolized | Compound NOT metabolized | Compound NOT metabolized | CC1Cc2ccccc2N1NC(=O)c1ccc(Cl)c(S(N)(=O)=O)c1 (stereo not given) [INDAPAMIDE] |
| Compound NOT metabolized | Compound NOT metabolized | Compound metabolized | Compound metabolized | Compound NOT metabolized | Compound metabolized | Compound metabolized | Compound metabolized | Compound metabolized | Compound metabolized | Compound metabolized | Compound metabolized | Compound metabolized | Compound NOT metabolized | Compound NOT metabolized | Compound NOT metabolized | Compound metabolized | Compound metabolized | Compound metabolized | Compound NOT metabolized | COc1ccc2c(c1)c(CC(=O)O)c(C)n2C(=O)c1ccc(Cl)cc1 [INDOMETHACIN] |
| Compound NOT metabolized | Compound NOT metabolized | Compound NOT metabolized | Compound metabolized | Compound NOT metabolized | Compound NOT metabolized | Compound metabolized | Compound metabolized | Compound metabolized | Compound NOT metabolized | Compound NOT metabolized | Compound NOT metabolized | Compound NOT metabolized | Compound NOT metabolized | Compound NOT metabolized | Compound NOT metabolized | Compound NOT metabolized | Compound NOT metabolized | Compound NOT metabolized | Compound NOT metabolized | CC(CCc1ccccc1)NCC(O)c1ccc(O)c(C(N)=O)c1 (stereo not given) [LABETALOL] |
| Compound NOT metabolized | Compound NOT metabolized | Compound NOT metabolized | Compound metabolized | Compound NOT metabolized | Compound NOT metabolized | Compound NOT metabolized | Compound NOT metabolized | Compound metabolized | Compound NOT metabolized | Compound NOT metabolized | Compound NOT metabolized | Compound NOT metabolized | Compound NOT metabolized | Compound NOT metabolized | Compound NOT metabolized | Compound metabolized | Compound NOT metabolized | Compound NOT metabolized | Compound NOT metabolized | Nc1nnc(-c2cccc(Cl)c2Cl)c(N)n1 [LAMOTRIGINE] |
| Compound metabolized | Compound NOT metabolized | Compound NOT metabolized | Compound metabolized | Compound metabolized | Compound metabolized | Compound metabolized | Compound NOT metabolized | Compound metabolized | Compound metabolized | Compound NOT metabolized | Compound metabolized | Compound NOT metabolized | Compound metabolized | Compound NOT metabolized | Compound metabolized | Compound metabolized | Compound metabolized | Compound metabolized | Compound metabolized | OC(c1cc(C(F)(F)F)nc2c(C(F)(F)F)cccc12)C1CCCCN1 (stereo not given) [MEFLOQUINE] |

Reference: ChEMBL document CHEMBL5724914, “Linking interpersonal differences in gut microbiota composition and drug biotransformation activity” (2024)
